Earlier results as cited in patent US11980701B2, “Joint implant with constant and continuous release of therapeutic agent” (Diffusion RX, Inc., priority 2021, dated 2024).

Key:
cartilage = conditions: at low doses
[1] = system: articular joint pain/inflammation; conditions: known treatments

Compound	cartilage effect in in vivo studies (cartilage)	length of effectiveness (FIG. 5A) [1]
C[C@]12CCC(=O)C=C1CC[C@@H]1[C@@H]2[C@@H](O)C[C@@]2(C)[C@H]1CC[C@]2(O)C(=O)CO [hydrocortisone]	significant cartilage protection	
C[C@]12CCC(=O)C=C1CC[C@@H]1[C@@H]2C(=O)C[C@@]2(C)[C@H]1CC[C@]2(O)C(=O)CO [cortisone shot, cortisone]		six to twelve
C[C@]12C=CC(=O)C=C1CC[C@H]1[C@@H]3C[C@@H](O)[C@](O)(C(=O)CO)[C@@]3(C)C[C@H](O)[C@@]12F [triamcinolone]	significant cartilage protection	
